Reference: patent publication US9718774B2, “Indole carboxamide derivatives as P2X7 receptor antagonist” (ACTELION PHARMACEUTICALS LTD, priority 2012, dated 2017)

Biological target: T1, human recombinant P2X7 receptor (Homo sapiens, UniProt Q99572)
T1 construct: expressed in transfected cells
T1 sequence (Q99572 1-595): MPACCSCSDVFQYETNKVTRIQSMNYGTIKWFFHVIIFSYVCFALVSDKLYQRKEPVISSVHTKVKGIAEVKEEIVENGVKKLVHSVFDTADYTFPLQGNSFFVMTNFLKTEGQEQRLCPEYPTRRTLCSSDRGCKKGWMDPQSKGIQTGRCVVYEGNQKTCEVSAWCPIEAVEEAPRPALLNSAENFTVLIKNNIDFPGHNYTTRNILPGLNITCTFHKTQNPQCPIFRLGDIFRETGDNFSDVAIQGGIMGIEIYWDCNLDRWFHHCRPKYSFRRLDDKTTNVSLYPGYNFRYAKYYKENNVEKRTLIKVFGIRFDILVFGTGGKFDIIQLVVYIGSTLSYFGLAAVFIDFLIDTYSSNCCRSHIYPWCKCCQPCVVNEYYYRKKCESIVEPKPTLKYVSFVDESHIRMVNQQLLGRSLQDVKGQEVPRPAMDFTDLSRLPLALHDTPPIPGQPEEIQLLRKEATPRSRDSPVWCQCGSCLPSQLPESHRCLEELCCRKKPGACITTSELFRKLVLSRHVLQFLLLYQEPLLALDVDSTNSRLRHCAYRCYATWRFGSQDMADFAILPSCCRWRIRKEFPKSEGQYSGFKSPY
Assay: YO-PRO assay: P2X7 receptor antagonistic activity in HEK cells stably expressing P2X7
Format: cell-based
Conditions: antagonistic activity with respect to the P2X7 receptor, read-out: IC50
Protocol: The P2X7 receptor antagonistic activity of the compounds of formula (I) is determined in accordance with the following experimental method.
Cell Line Generation and YO-PRO Assay
Cell line generation was performed in general according to established molecular cloning protocols. Specifically, RNA was extracted from human whole blood using the Qiagen RNeasy kit (Qiagen, CH) according to the manufacturer's instructions. Subsequently cDNA was made (Superscript II, Invitrogen AG, CH) and the human P2X7 gene (genbank ref. BC011913) was amplified with the following primers: […] and […]. The amplified sequence was subsequently ligated into a pcDNA3.1 (+) NotI, NheI digested plasmid. Human embryonic kidney (HEK) cells (ATCC CRL—1573, Manassas, Va., USA) were transfected with the pcDNA3.1 (+).hP2X7 plasmid using lipofectamine 2000 (Invitrogen AG, CH) according to the manufacturer's instructions. Following a 24 h exposure to DNA, cells were trypsinized and re-seeded at low density in the presence of 250 μg Geneticin. Geneticin resistant cells were then selected during two consecutive rounds of cloning by serial limiting dilution with visual inspection. Individual clones were screened for P2X7 expression by applying ATP and recording the resultant uptake of YO-PRO1. Specific cell clones were chosen based on RNA and protein expression. HEK cells stably expressing P2X7 were used to screen drugs using the YO-PRO1 assay. Cells were grown to confluency in adherent culture at 37° C. in a humidified 5% CO2 incubator (split 1/5 every 3-4 days with DMEM, 10% FCS, 1% Penicillin/Streptomycin, 250 μg/ml Geneticin). Adherent cells were detached by incubation with Trypsine (1 ml per 165 cm^2 dish) for 2 minutes, then washed off with 10 ml PBS (without Mg^2+ and Ca^2+), and resuspended in DMEM, 10% FCS, 1% Penicillin/Streptomycin, no Geneticin. 10′000 cells per well (48 hours before the assay) or 25′000 cells per well (Vi-cell XR (Beckman Coulter) (24 hours before the assay) in 50 μl full medium were seeded on 384-well black-wall, clear bottom plates, that were coated before with 10 μl per well Poly-L-Lysine, incubated for 30-60 minutes at 37° C. and washed once with PBS. Medium was removed from cells and 50 μl of assay buffer containing 0.5 μM YO-PRO-1 was added into the wells. Solutions of antagonist compounds were prepared by serial dilutions of a 10 mM DMSO solution of the antagonist into PBS using a BioMek (Beckman Coulter). Each concentration was performed in duplicate. For IC50 measurements 10 concentration points were measured (10 μM being the highest concentration followed by 9 serial dilution steps 1/3). The cells were incubated with the antagonists of the present invention together with ATP at a final concentration of 250 μM for 90 minutes. During this time period, four time points were taken. Each time point comprised the average of several measurements made within a few seconds. Fluorescence was measured in the FLIPR tetra (Molecular Devices) using the filters appropriate for YO-PRO-1 fluorescence (excitation 485/20, emission 530/25). The FLIPR tetra was equipped with Molecular Devices Screen Works system control software to define and run experimental protocols. […] For IC50 measurements the maximum intensity is plotted against the concentration of compound to determine IC50 values.

| SMILES | IC50 [nM] |
| --- | --- |
| Cc1ncc(C(CNC(=O)c2cc(OCCO)c3[nH]ccc3c2Cl)N2CCOCC2)cn1 (racemic) [Example 113, rac-4-Chloro-7-(2-hydroxy-ethoxy)-1H-indole-5-carboxylic acid [2-(2-methyl-pyrimidin-5-yl)-2-morpholin-4-yl-ethyl]-amide] | 21 |
| Cc1ncc(C(CNC(=O)c2ccc3[nH]ccc3c2Cl)NC2CCCC2)cn1 (racemic) [Example 83, rac-4-Chloro-1H-indole-5-carboxylic acid [2-cyclopentylamino-2-(2-methyl-pyrimidin-5-yl)-ethyl]-amide] | 162 |
| Cc1ncc(C(CNC(=O)c2ccc3[nH]ccc3c2Cl)N2CC(C)OC(C)C2)cn1 (single isomer, unassigned) [Example 42, 4-Chloro-1H-indole-5-carboxylic acid [2-(2,6-dimethyl-morpholin-4-yl)-2-(2-methyl-pyrimidin-5-yl)-ethyl]-amide] | 36 |
| Cc1ncc(C(CNC(=O)c2cc(C)c3[nH]ccc3c2C(F)(F)F)N2CCOCC2)cn1 (racemic) [Example 103, rac-7-Methyl-4-trifluoromethyl-1H-indole-5-carboxylic acid [2-(2-methyl-pyrimidin-5-yl)-2-morpholin-4-yl-ethyl]-amide] | 26 |
| O=C(NCC(c1cnc(C(F)(F)F)nc1)N1CCC(F)(F)CC1)c1ccc2[nH]ccc2c1Cl (racemic) [Example 8, rac-4-Chloro-1H-indole-5-carboxylic acid [2-(4,4-difluoro-piperidin-1-yl)-2-(2-trifluoromethyl-pyrimidin-5-yl)-ethyl]-amide] | 12 |
| CCC(CC)C(CNC(=O)c1ccc2[nH]ccc2c1Cl)c1cncnc1 (racemic) [Example 88, rac-4-Chloro-1H-indole-5-carboxylic acid (3-ethyl-2-pyrimidin-5-yl-pentyl)-amide] | 15 |

Second part, the compound after the results:

| IC50 [nM] | SMILES |
| --- | --- |
| 8.8 | O=C(NCC(c1ccc(Cl)nc1)N1CCCCC1)c1ccc2[nH]ccc2c1Cl (racemic) [Example 56, rac-4-Chloro-1H-indole-5-carboxylic acid [2-(6-chloro-pyridin-3-yl)-2-piperidin-1-yl-ethyl]-amide] |
| 13 | O=C(NCC(c1ccc(F)c(F)c1)N1CCOCC1)c1ccc2[nH]ccc2c1Cl (racemic) [Example 50, rac-4-Chloro-1H-indole-5-carboxylic acid [2-(3,4-difluoro-phenyl)-2-morpholin-4-yl-ethyl]-amide] |
| 73 | O=C(NCC(c1ccc(Cl)cc1F)N1CCOCC1)c1ccc2[nH]ccc2c1Cl (racemic) [Example 40, rac-4-Chloro-1H-indole-5-carboxylic acid [2-(4-chloro-2-fluoro-phenyl)-2-morpholin-4-yl-ethyl]-amide] |
| 5.1 | O=C(NCC(c1ccc(C(F)(F)F)nc1)N1CCOCC1)c1ccc2[nH]ccc2c1Cl (racemic) [Example 10, rac-4-Chloro-1H-indole-5-carboxylic acid [2-morpholin-4-yl-2-(6-trifluoromethyl-pyridin-3-yl)-ethyl]-amide] |
| 102 | O=C(NCC(c1ccc(Oc2ccccc2)cc1)N1CCOCC1)c1ccc2[nH]ccc2c1Cl (racemic) [Example 58, rac-4-Chloro-1H-indole-5-carboxylic acid [2-morpholin-4-yl-2-(4-phenoxy-phenyl)-ethyl]-amide] |
| 301 | O=C(NCC(c1c(F)cc(F)cc1F)N1CCOCC1)c1ccc2[nH]ccc2c1Cl (racemic) [Example 33, rac-4-Chloro-1H-indole-5-carboxylic acid [2-morpholin-4-yl-2-(2,4,6-trifluoro-phenyl)-ethyl]-amide] |
| 48 | O=C(NCC(c1cncs1)N1CCCCC1)c1ccc2[nH]ccc2c1Cl (racemic) [Example 62, rac-4-Chloro-1H-indole-5-carboxylic acid (2-piperidin-1-yl-2-thiazol-5-yl-ethyl)-amide] |
| 118 | Cc1ncc(C(CNC(=O)c2cc(F)c3[nH]ccc3c2F)N2CCOCC2)cn1 (racemic) [Example 117, rac-4,7-Difluoro-1H-indole-5-carboxylic acid [2-(2-methyl-pyrimidin-5-yl)-2-morpholin-4-yl-ethyl]-amide] |
